Measurements reported in EPA's ToxValDB 9.5 (doi:10.2903/j.efsa.2013.3461).
Converted amounts (≈) assume the structure as drawn.

What was measured:
Anas platyrhynchos = settings: short-term; oral; feed; mortality
Apis mellifera = settings: acute, duration: 48 hours, mortality
Bibionidae = settings: chronic/long-term; duration: 28 days; development
Canidae = settings: oral, Dog Other, hematological
Daphnia magna = settings: chronic/long-term; duration: 21 days; reproduction
Rattus norvegicus = settings: for LD50: acute, oral, mortality

Cc1cc(C)cc(C(=O)N(NC(=O)c2ccc3c(c2C)CCCO3)C(C)(C)C)c1 [Chromafenozide]
LC50 (Anas platyrhynchos): > 2160 mg/kg-day | LD50 (Apis mellifera; dermal): > 100 µg/piece | LD50 (Apis mellifera; oral, unspecified): > 133 µg/piece | NOEC (Bibionidae): 0.047 mg/kg | NOAEL (Canidae; chronic, duration: 52 weeks): 27 mg/kg-day | NOAEL (Canidae; subchronic, duration: 90 days): 52 mg/kg-day | LC50 (Colinus virginianus; acute, oral, diet, mortality): > 1840 mg/kg-day | LD50 (Colinus virginianus; acute, oral, mortality): > 2000 mg/kg | NOEC (Colinus virginianus; reproduction developmental, reproduction): 79 mg/kg-day | NOEC (Daphnia magna): 0.84 mg/L | LC50 (Oncorhynchus mykiss; acute, duration: 96 hours, mortality): 4.5 mg/L (≈ 11.4 µM) | NOEC (Oncorhynchus mykiss; chronic/long-term, duration: 28 days, growth): 0.96 mg/L | LD50 (Rattus norvegicus): > 5000 mg/kg | NOEL (Rattus norvegicus; reproduction developmental, histopathology: nonneoplastic): 128 mg/kg-day | LC50 (Tagia sp.; acute, duration: 14 days, mortality): > 1000 mg/kg | NOEC (Tagia sp.; chronic/long-term, duration: 8 weeks, reproduction): 49 mg/kg

Cc1cc(C)cc(C(=O)N(NC(=O)c2ccc3c(c2C)C(O)CCO3)C(C)(C)C)c1 (configuration not stated) [Chromafenozide metabolite (M 010)]
LD50 (Rattus norvegicus): > 2000 mg/kg
